Laboratory results from ChEMBL document CHEMBL2311446, “Hybrid fluorescent conjugates of COX-2 inhibitors: search for a COX-2 isozyme imaging cancer biomarker” (Bioorg Med Chem Lett, 2013).

How the values were obtained:
[1] = molecular target: T1, Prostaglandin G/H synthase 1 (Ovis aries, UniProt P05979); experiment: Inhibition of ovine COX1
T1 sequence (P05979 whole entry): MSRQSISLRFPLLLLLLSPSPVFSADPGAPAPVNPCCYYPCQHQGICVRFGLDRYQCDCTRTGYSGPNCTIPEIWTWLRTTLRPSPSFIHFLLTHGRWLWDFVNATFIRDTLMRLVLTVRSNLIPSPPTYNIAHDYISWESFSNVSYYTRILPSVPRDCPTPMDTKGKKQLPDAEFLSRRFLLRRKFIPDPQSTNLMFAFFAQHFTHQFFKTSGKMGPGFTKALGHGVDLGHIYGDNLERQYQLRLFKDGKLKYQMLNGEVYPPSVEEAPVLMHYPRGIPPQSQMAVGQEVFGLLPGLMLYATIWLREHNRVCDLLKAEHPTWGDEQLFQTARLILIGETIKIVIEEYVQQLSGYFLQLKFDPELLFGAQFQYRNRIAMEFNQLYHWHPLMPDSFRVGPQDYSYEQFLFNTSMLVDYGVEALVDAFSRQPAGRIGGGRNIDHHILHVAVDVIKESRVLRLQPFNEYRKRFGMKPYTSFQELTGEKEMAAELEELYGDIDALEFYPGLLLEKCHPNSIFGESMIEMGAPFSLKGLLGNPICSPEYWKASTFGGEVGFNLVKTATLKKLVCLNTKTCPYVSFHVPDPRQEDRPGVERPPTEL

[2] = Drug uptake in human HCA-7 cells overexpressing COX2 assessed as fluorescence at 10 uM after 1 hr by confocal laser scanning microscopic analysis; assay type: ADME, cell-based; details: hca-7, 1 h

Compound	IC50 [1] [µM]	Drug uptake [2]
CC(C)Cc1ccc(C(C)C(=O)OCCNS(=O)(=O)c2cccc3c(N(C)C)cccc23)cc1 (stereo unspecified)	> 100	
CN(C)c1cccc2c(S(=O)(=O)NCCNS(=O)(=O)c3ccc(C4=C(c5ccc(Cl)cc5)C(=O)OC4)cc3)cccc12	> 100	
Cc1ccc(-c2cc(C(F)(F)F)nn2-c2ccc(S(=O)(=O)NCCNS(=O)(=O)c3cccc4c(N(C)C)cccc34)cc2)cc1	> 100	
CCN(CC)c1ccc2c(c1)Oc1cc(N(CC)CC)ccc1C21c2ccccc2C(=O)N1CCNS(=O)(=O)c1ccc(-n2nc(C(F)(F)F)cc2-c2ccc(C)cc2)cc1	> 100	
CCN(CC)c1ccc2c(-c3ccccc3C(=O)O)c3ccc(=[N+](CC)CC)cc-3oc2c1 [RHODAMINE B]		Not Active

The remaining lines, values ahead:

IC50 [1] [µM]	Drug uptake [2]	Compound
74.1		CC(C)Cc1ccc(C(C)C(=O)OCCn2c3ccccc3c(=O)c3ccccc32)cc1 (stereo unspecified)
30.3		COc1ccc2cc([C@H](C)C(=O)OCCn3c4ccccc4c(=O)c4ccccc43)ccc2c1
39.4		CC(=O)Oc1ccccc1C(=O)OCCn1c2ccccc2c(=O)c2ccccc21
88.1		O=c1c2ccccc2n(CCOS(=O)(=O)c2ccc(C(F)(F)F)cc2)c2ccccc12
51.5		CC(C)Cc1ccc(C(C)C(=O)n2c3ccccc3c(=O)c3ccccc32)cc1 (stereo unspecified)
18		COc1ccc2cc([C@H](C)C(=O)n3c4ccccc4c(=O)c4ccccc43)ccc2c1
